Laboratory results published in article PMC9774391 (ACS Omega, 2022).

Legend:
Beta Amyloid 1–42 (Aβ42) = biological target: T1, Beta Amyloid 1–42 (Aβ42) (Homo sapiens, UniProt P05067); assay: Beta Amyloid 1–42 (Aβ42) inhibitor screening assay; format: biochemical; conditions: 10^–4 M; read-out: % β-amyloid plaque inhibition
T1 construct: The Beta Amyloid 1–42 (Aβ42) Ligand Screening Assay kit; purchased BioVision, Milpitas, CA
Source text: The Beta Amyloid 1–42 (Aβ42) Ligand Screening Assay kit (BioVision, Milpitas, CA) technique based on the fluorometric approach served as the basis for the experimental process.[21],[28],[29]

MAO-B = biological target: T2, MAO-B (Homo sapiens, UniProt P27338); assay: In vitro MAO-B inhibition assay (fluorometric); format: biochemical; conditions: for inhibition at 1000 µM: 10^–3 M; for inhibition at 100 µM: 10^–4 M
T2 sequence (P27338 1-520): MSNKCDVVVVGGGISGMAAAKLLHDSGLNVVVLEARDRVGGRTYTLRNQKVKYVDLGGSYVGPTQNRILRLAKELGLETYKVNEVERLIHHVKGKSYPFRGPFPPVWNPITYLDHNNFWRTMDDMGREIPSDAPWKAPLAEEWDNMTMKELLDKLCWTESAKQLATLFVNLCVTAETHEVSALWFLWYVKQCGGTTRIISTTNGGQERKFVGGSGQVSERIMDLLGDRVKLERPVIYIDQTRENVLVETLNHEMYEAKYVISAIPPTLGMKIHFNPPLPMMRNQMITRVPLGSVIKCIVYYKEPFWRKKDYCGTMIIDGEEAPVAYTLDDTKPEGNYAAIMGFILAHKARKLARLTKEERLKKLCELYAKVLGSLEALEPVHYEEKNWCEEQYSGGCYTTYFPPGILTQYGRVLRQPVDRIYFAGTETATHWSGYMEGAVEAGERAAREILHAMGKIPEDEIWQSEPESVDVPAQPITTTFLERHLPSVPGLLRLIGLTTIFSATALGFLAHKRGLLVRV

Cytotoxicity test (MTT) = format: cell-based; conditions: NIH/3T3 mouse embryonic fibroblast cells (ATCC CRL-1658), NIH/3T3 mouse fibroblast healthy cell line
Method: The NIH/3T3 cells were incubated according to the manufacturer’s recommendations. In 96-well plates, NIH/3T3 cells were seeded at a density of 1 × 10^4 cells per well. The MTT test was conducted in line with the previously mentioned standards.[19],[22],[23],[28],[30]

AChE = AChE (Homo sapiens, UniProt P22303); assay: biochemical; conditions: for inhibition at 1000 µM: 10^–3 M; for inhibition at 100 µM: 10^–4 M; for inhibition at 10 µM: 10^–5 M; for inhibition at 1 µM: 10^–6 M; for inhibition at 0.1 µM: 10^–7 M; for inhibition at 0.01 µM: 10^–8 M; for inhibition at 0.001 µM: 10^–9 M
Sequence of AChE (P22303 32-614): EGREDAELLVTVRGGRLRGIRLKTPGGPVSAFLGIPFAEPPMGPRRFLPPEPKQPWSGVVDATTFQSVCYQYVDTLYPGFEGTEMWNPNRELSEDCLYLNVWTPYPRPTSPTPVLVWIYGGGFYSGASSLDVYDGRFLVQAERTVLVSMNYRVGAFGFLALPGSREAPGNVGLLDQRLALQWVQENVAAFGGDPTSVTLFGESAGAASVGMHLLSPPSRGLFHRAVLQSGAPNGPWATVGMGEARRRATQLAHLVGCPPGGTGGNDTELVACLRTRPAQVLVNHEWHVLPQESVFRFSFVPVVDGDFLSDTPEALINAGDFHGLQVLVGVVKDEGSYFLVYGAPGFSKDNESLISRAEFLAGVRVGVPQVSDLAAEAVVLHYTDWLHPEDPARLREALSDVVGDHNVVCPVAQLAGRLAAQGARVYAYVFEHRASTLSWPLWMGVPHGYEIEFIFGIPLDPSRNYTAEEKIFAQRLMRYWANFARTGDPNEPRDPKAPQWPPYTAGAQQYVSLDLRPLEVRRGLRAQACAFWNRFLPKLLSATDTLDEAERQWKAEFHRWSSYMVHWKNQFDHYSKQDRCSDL
Method: (§1) According to the modified Ellman approach outlined in our team’s earlier work, the AChE and BChE inhibitory activities of the obtained compounds were evaluated.[18]−[21]

BChE = BChE (Homo sapiens, UniProt P06276); assay: biochemical; conditions: for inhibition at 1000 µM: 10^–3 M; for inhibition at 100 µM: 10^–4 M
Sequence of BChE (P06276 29-602): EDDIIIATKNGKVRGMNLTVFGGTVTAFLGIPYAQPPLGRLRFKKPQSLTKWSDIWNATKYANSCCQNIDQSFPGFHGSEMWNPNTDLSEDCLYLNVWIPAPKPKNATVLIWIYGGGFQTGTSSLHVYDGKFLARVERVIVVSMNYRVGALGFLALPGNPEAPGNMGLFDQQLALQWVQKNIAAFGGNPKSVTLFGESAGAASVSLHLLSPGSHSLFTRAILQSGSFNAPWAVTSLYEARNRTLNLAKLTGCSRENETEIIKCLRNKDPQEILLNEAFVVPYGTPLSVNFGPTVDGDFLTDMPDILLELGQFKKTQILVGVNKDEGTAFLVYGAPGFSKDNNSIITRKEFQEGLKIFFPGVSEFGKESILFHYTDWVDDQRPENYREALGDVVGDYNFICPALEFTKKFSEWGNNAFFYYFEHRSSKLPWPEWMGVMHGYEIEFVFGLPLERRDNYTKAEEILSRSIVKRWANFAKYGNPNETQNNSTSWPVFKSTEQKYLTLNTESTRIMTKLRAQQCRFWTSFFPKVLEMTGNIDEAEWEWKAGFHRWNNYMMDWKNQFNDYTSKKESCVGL
Method: as §1

MAO-A = biological target: T3, MAO-A (Homo sapiens, UniProt P21397); assay: In vitro MAO-A inhibition assay (fluorometric); format: biochemical; conditions: for inhibition at 1000 µM: 10^–3 M; for inhibition at 100 µM: 10^–4 M
T3 sequence (P21397 1-527): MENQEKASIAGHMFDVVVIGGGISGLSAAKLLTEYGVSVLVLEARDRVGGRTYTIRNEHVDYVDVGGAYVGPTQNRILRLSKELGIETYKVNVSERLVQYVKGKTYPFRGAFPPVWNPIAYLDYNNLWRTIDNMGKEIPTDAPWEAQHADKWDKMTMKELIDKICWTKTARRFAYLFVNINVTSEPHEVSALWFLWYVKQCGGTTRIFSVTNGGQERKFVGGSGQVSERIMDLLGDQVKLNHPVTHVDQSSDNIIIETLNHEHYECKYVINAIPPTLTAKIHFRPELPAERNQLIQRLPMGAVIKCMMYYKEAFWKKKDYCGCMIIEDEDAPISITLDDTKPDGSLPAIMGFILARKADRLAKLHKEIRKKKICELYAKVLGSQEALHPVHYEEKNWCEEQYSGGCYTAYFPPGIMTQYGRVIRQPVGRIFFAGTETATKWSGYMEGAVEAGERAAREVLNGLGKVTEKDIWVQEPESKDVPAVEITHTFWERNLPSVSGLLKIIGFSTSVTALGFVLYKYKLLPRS

[1] = DPPH free-radical scavenging activity assay; conditions: for IC50: serial dilution 10^–3–10^–9 M, read-out: IC50 on DPPH antioxidant activity
Method: This approach is based on evaluating the free-radical scavenging abilities of the stable 1,1-diphenyl-2-picrylhydrazyl (DPPH) radical. To create the DPHH solution, 9.86 mg of DPPH was weighed and diluted to 25 mL with methanol. The test wells were then filled with 100 μL of the DPPH solution and 100 μL of the test solutions. Only 200 μL of methanol was used for the blank reading, while the control reading required the usage of 100 μL each of methanol and the DPPH solution. Following incubation, a spectrophotometric measurement at 517 nm was carried out.[26],[27]

T1 sequence (P05067 672-713 limits assumed): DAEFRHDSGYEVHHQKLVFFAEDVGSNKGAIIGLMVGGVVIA

Structure (SMILES) | inhibition at 1000 µM (MAO-B) | inhibition at 100 µM (MAO-B) | IC50 (Cytotoxicity test (MTT)) | IC50 (AChE) | inhibition at 1000 µM (AChE) | inhibition at 100 µM (AChE) | inhibition at 10 µM (AChE) | inhibition at 1 µM (AChE) | inhibition at 0.1 µM (AChE) | inhibition at 0.01 µM (AChE) | inhibition at 0.001 µM (AChE) | inhibition at 1000 µM (BChE) | inhibition at 100 µM (BChE) | inhibition at 1000 µM (MAO-A) | inhibition at 100 µM (MAO-A) | IC50 [1] | further results
COc1ccc2c(c1)C(=O)/C(=C/c1ccc(NC(=O)CN3CCN(CCCO)CC3)cc1)C2 [D20] | 83.6 ± 1.04% | 41.6 ± 0.508% | 20000 ± 1000 nM | 31.1 ± 1.1 nM | 98.3 ± 1.11% | 91.1 ± 1.36% | 86.3 ± 1.25% | 77.2 ± 0.975% | 68.26 ± 0.633% | 40.2 ± 0.528% | 21.1 ± 0.429% | 82.6 ± 1.05% | 20.1 ± 0.277% | 81.86 ± 0.243% | 43.29 ± 0.429% | – | inhibition at 100 µM (Beta Amyloid 1–42 (Aβ42)): > 50%
COc1cc2c(cc1OC)C(=O)/C(=C/c1ccc(NC(=O)CN3CCN(CCCN(C)C)CC3)cc1)C2 [D27] | 94.6 ± 1.02% | 43.1 ± 0.452% | 10500 ± 467 nM | 130 ± 4.2 nM | 91.2 ± 1.3% | 87.3 ± 1.12% | 82.1 ± 1.03% | 73.3 ± 0.994% | 41.2 ± 0.562% | 31.6 ± 0.389% | 22.5 ± 0.419% | 94.83 ± 0.731% | 35.9 ± 0.444% | 95.08 ± 0.687% | 44.4 ± 2.29% | 310 ± 13 nM | –
COc1ccc2c(c1)C/C(=C\c1ccc(NC(=O)CN(C)CCN(C)C)cc1)C2=O [D34] | 78.5 ± 1.31% | 47.3 ± 0.676% | 75500 ± 2180 nM | 191 ± 8.7 nM | 98.3 ± 1.11% | 91.1 ± 1.36% | 76 ± 1.12% | 63.4 ± 0.985% | 41.2 ± 0.528% | 32.5 ± 0.588% | 23.5 ± 0.429% | 91.6 ± 1.03% | – | 82.1 ± 1.25% | 38.3 ± 0.458% | 302 ± 14 nM | IC50 (BChE): 132 ± 5.1 nM; inhibition at 10 µM (BChE; 10^–5 M): 76.3 ± 1.14%; inhibition at 1 µM (BChE; 10^–6 M): 71.9 ± 1.01%; inhibition at 0.1 µM (BChE; 10^–7 M): 49.7 ± 0.856%; inhibition at 0.01 µM (BChE; 10^–8 M): 31.5 ± 0.405%; inhibition at 0.001 µM (BChE; 10^–9 M): 20.5 ± 0.399%
COc1cc2c(cc1OC)C(=O)/C(=C/c1ccc(NC(=O)CN3CCN(CCCO)CC3)cc1)C2 [D21] | 93.5 ± 1.38% | 46.2 ± 0.587% | 39500 ± 1820 nM | 29.2 ± 0.8 nM | 95.7 ± 1.2% | 91.7 ± 1.47% | 87.3 ± 1.3% | 81.8 ± 1.1% | 70.6 ± 1% | 38.3 ± 0.678% | 19.3 ± 0.593% | 99.7 ± 2.82% | 40.6 ± 0.978% | 91.2 ± 1.21% | 26.9 ± 0.541% | – | inhibition at 100 µM (Beta Amyloid 1–42 (Aβ42)): > 50%
O=C(O)CC(O)(CC(=O)O)C(=O)O [citric acid, reference compound] | – | – | – | – | – | – | – | – | – | – | – | – | – | – | – | 194 ± 9 nM | % DPPH free-radical scavenging (antioxidant) activity ([1]; 10^–3 M): 99.48% ± 1.45; % DPPH free-radical scavenging (antioxidant) activity ([1]; 10^–4 M): 94.26% ± 1.37
C#CCN(C)CC(=O)Nc1ccc(/C=C2\Cc3cc(OC)ccc3C2=O)cc1 [D31] | 93.6 ± 1.48% | 88.7 ± 1.36% | 26000 ± 1280 nM | – | 41.3 ± 0.966% | 27.1 ± 0.803% | – | – | – | – | – | 98.8 ± 2.69% | 41.6 ± 0.988% | 92.7 ± 1.31% | 23.9 ± 0.572% | – | IC50 (MAO-B): 61.9 ± 2.8 nM; inhibition at 10 µM (MAO-B; 10^–5 M): 81.5 ± 1.24%; inhibition at 1 µM (MAO-B; 10^–6 M): 75.9 ± 1.06%; inhibition at 0.1 µM (MAO-B; 10^–7 M): 61.9 ± 1.01%; inhibition at 0.01 µM (MAO-B; 10^–8 M): 35.5 ± 0.485%; inhibition at 0.001 µM (MAO-B; 10^–9 M): 18.8 ± 0.511%
COc1ccc2c(c1)C/C(=C\c1ccc(NC(=O)CN3CCN(CCCN(C)C)CC3)cc1)C2=O [D25] | 79 ± 1.31% | 40.1 ± 0.63% | 13800 ± 369 nM | 183 ± 7.4 nM | 92.6 ± 1.62% | 88.7 ± 1.19% | 71.1 ± 1.01% | 58.9 ± 0.952% | 43.2 ± 0.548% | 35.3 ± 0.417% | 23.4 ± 0.389% | 95.7 ± 2.13% | 32 ± 0.667% | 80.38 ± 0.646% | 43.1 ± 0.646% | – | –
